According to patent US20150150888A1, “COMBINATION OF SELECTIVE PROGESTERONE-RECEPTOR MODULATORS AND NONSTEROIDAL ANTI-INFLAMMATORY DRUGS” (LABORATOIRE HRA-PHARMA, priority 2012, published 2015):

Experiments:
[1] = tested on: LH-induced ovarian follicle rupture; assay: ovarian hyperstimulation (superovulation) model: counting the oocytes released into the oviducts; type: in vivo, CD1 mice; conditions: for number of oocytes released into the oviducts compared with the control group: oocytes counted 18 h after hCG
Method: The effect of the combined administration of ulipristal acetate (UPA) and of a non-steroidal anti-inflammatory agent (NSAID) on LH-induced ovarian follicle rupture was evaluated in an animal model of ovarian hyperstimulation (superovulation model).
(§1) 24 to 28-day-old immature CD1 mice were subjected to ovarian hyperstimulation by injection of 5 IU of PMSG (pregnant mare's serum gonadotropin) followed, 48 h later, by 5 IU of hCG (chorionic gonadotropin hormone) intraperitoneally. The mice were divided up into several groups, each of 10 mice. 8 hours after the hCG injection, the mice were administered, intraperitoneally, with either the compound(s) to be tested, or the placebo (vehicle). The mice were euthanized 18 hours after the hCG injection. The effect of the compound(s) on follicular rupture and therefore ovulation was determined by counting the oocytes released into the oviducts. In experiment series No. 2, a morphological and histological examination of the ovaries was carried out so as to evaluate the presence of unruptured follicles and/or of yellow bodies in the ovaries of each group of animals.
Series 1: • Group 1: placebo • Group 2: 3 mg/kg of piroxicam • Group 3: 10 mg/kg of piroxicam • Group 4: 30 mg/kg of piroxicam.
Series 2: • Group 1: placebo • Group 2: 40 mg/kg of ulipristal acetate • Group 3: 40 mg/kg of ulipristal acetate+3 mg/kg of piroxicam • Group 4: 40 mg/kg of ulipristal acetate+30 mg/kg of piroxicam. […]

[2] = single dose of 30 mg within 72 or 120 hours after sexual intercourse; cited from earlier work
follicular rupture = conditions: administration after the LH peak; cited from earlier work
[3] = tested on: LH-induced ovarian follicle rupture; assay: morphological and histological examination of the ovaries (unruptured follicles, yellow bodies) in the superovulation model; type: in vivo, CD1 mice; conditions: 40 mg/kg UPA in the absence of piroxicam, compared with groups 3 and 4
Method: as §1

Compound: CN1C(C(=O)Nc2ccccn2)=C(O)c2ccccc2S1(=O)=O [piroxicam]
- number of oocytes released into the oviducts compared with the control group ([1]; piroxicam 3 mg/kg i.p. 8 h after hCG): does not significantly reduce
- number of oocytes released into the oviducts compared with the control group ([1]; piroxicam 10 mg/kg i.p. 8 h after hCG): does not significantly reduce
- number of oocytes released into the oviducts compared with the control group ([1]; piroxicam 30 mg/kg i.p. 8 h after hCG): significantly reduce

Compound: CC(C)Cc1ccc(C(C)C(=O)O)cc1 (stereo not drawn) [ibuprofen]
- effect on ovulation compared with the control group ([1]; ibuprofen alone, dose between 15 mg and 150 mg (per kg)): no significant effect

Compound: CC(=O)O[C@]1(C(C)=O)CCC2C3CCC4=CC(=O)CCC4=C3[C@@H](c3ccc(N(C)C)cc3)C[C@@]21C (stereo partly drawn) [ulipristal acetate, 17α-acetoxy-11β-[4-N,N-dimethylaminophenyl)-19-norpregna-4,9-diene-3,20-dione]
- prevention of unwanted pregnancy after unprotected or poorly protected sexual intercourse [2]: safe and effective
- inhibition of follicular rupture during the 5 days following administration, cases (follicular rupture): 8.3%
- mean number of oocytes released compared with the control group ([1]; 40 mg/kg UPA 8 h after hCG injection, piroxicam series 2): approximately −50%
- number of oocytes released compared with the control group ([1]; group 2: 40 mg/kg ulipristal acetate, ibuprofen series 2): significant decrease
- yellow bodies (corpus luteum) in histological sections [3]: more numerous
